Results on one compound are retold here after article PMC9153040 (Blood Advances, 2021).

This test deals with T1, ALAS2 (recombinant erythroid-specific 5-aminolevulinate synthase; hsALAS2 in transgenic MEL cells) (Homo sapiens, UniProt P22557).
T1 sequence (P22557 50-587): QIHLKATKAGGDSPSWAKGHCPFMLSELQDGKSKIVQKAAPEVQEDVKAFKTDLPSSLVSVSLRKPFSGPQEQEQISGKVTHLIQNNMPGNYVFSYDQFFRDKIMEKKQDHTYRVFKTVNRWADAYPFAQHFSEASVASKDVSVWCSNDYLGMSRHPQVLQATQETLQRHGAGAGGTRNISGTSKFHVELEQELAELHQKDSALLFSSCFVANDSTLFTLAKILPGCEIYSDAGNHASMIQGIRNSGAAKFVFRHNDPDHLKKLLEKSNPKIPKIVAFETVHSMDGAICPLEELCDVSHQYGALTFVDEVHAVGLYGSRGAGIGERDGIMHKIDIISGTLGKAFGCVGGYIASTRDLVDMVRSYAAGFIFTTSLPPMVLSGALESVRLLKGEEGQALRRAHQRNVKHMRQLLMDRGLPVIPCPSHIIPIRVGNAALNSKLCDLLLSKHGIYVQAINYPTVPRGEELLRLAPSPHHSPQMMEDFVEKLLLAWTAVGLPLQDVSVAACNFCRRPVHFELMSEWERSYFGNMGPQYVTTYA
Nature of the test: discontinuous colorimetric assay of ALA. Type of test: biochemical.

The term Ki denotes a dissociation constant, usually derived from enzyme kinetics or from competition with a known ligand. With `C=C(CC(=O)SCCNC(=O)CCNC(=O)[C@H](O)C(C)(C)COP(=O)(O)OP(=O)(O)OC[C@H]1O[C@@H](n2cnc3c(N)ncnc32)[C@H](O)[C@@H]1OP(=O)(O)O)C(=O)O` [itaconyl-CoA], the inhibition constant Ki was determined as 100 ± 20 µM.
